# “And” between values parts separate entries of the source, which are not always exact repeats. Equal entries are not always repeated. Where two headings read alike, the source gives them in different places.
# How the values were obtained:
# HPDE = test: cells; parameters: Viability of PDAC cell lines, ATPlite luminescence, 11-dose single-agent curve fit; conditions: HPDE, 72 h, read-out: EC50 [nM]
# Method: (§1) Afterward, small amounts were transferred to 384-well intermediate plates (Greiner Bio-One GmbH, Germany). […] For drug combination screening, 1000 to 5000 cells were seeded into 384-well plates (CulturPlate™, Perkin Elmer, MA, USA) using a Multidrop™ Combi Reagent Dispenser (Thermo Scientific, MA, USA) in 50 µl medium per well 24 h prior to drug treatment (seeding densities see Appendix Table S1). […] The final DMSO concentration in each well was 0.2%. […] Eight wells per plate without library drug served as negative controls, and sixteen wells per plate containing 5 µM Staurosporine served as positive controls. […] Next, we analyzed the drug sensitivity of immortalized duct cell line HPDE to detect effects unrelated to pancreatic cancer.
# PaTu-8988-T = test: cells; parameters: Viability of PDAC cell lines, ATPlite luminescence, 11-dose single-agent curve fit; conditions: Homo sapiens, PaTu 8988t, 72 h, read-out: EC50 [nM]
# Method: as §1
# Colo-357 = test: cells; parameters: Viability of PDAC cell lines, ATPlite luminescence, 11-dose single-agent curve fit; conditions: Homo sapiens, COLO357, 72 h, read-out: EC50 [nM]
# Method: as §1
# Suit2-07 = test: cells; parameters: Viability of PDAC cell lines, ATPlite luminescence, 11-dose single-agent curve fit; conditions: 72 h, read-out: EC50 [nM]
# Method: as §1
# BxPC-3 = test: cells; parameters: Viability of PDAC cell lines, ATPlite luminescence, 11-dose single-agent curve fit; conditions: Homo sapiens, BXPC-3, 72 h, read-out: EC50 [nM]
# Method: as §1
# AsPC-1 = test: cells; parameters: Viability of PDAC cell lines, ATPlite luminescence, 11-dose single-agent curve fit; conditions: Homo sapiens, ASPC1, 72 h, read-out: EC50 [nM]
# Method: as §1
# HuP-T4 = test: cells; parameters: Viability of PDAC cell lines, ATPlite luminescence, 11-dose single-agent curve fit; conditions: Homo sapiens, HuP-T4, 72 h, read-out: EC50 [nM]
# Method: as §1
# PANC-1 = test: cells; parameters: Viability of PDAC cell lines, ATPlite luminescence, 11-dose single-agent curve fit; conditions: Homo sapiens, PANC-1, 72 h, read-out: EC50 [nM]
# Method: as §1
# FAMPAC = test: cells; parameters: Viability of PDAC cell lines, ATPlite luminescence, 11-dose single-agent curve fit; conditions: 72 h, read-out: EC50 [nM]
# Method: as §1
# Dan-G = test: cells; parameters: Viability of PDAC cell lines, ATPlite luminescence, 11-dose single-agent curve fit; conditions: 72 h, read-out: EC50 [nM]
# Method: as §1
# Capan-1 = test: cells; parameters: Viability of PDAC cell lines, ATPlite luminescence, 11-dose single-agent curve fit; conditions: Homo sapiens, CAPAN-1, 72 h, read-out: EC50 [nM]
# Method: as §1
# PSN-1 = test: cells; parameters: Viability of PDAC cell lines, ATPlite luminescence, 11-dose single-agent curve fit; conditions: Homo sapiens, PSN1, 72 h, read-out: EC50 [nM]
# Method: as §1
# AsPC-1 cells = test: Cell proliferation assay, chemodrug + ATR inhibitor (Incucyte confluence, 72 h); conditions: for EC50: Homo sapiens;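 on all read-outs here: underlying read-out for every value is AsPC-1 confluence after 72 h incubation at 37 °C and 5% CO2, divided by that well's starting confluence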
# Method: Cells were seeded at 5000 cells/well into 96-well flat bottom plates (Eppendorf) and allowed to attach overnight. […] Cells were incubated for 72 h at 37 °C and 5% CO2. Cell confluence readouts at 72 h were either normalized to their initial confluence using the Incucyte software (AsPC-1) or used without prior normalization (all others). […] Each experiment was performed in triplicates, the data was plotted as mean ± standard deviation (s.d.).
# MiaPaCa-2 = test: cells; parameters: ATPlite luminescence viability of PDAC cell lines, 11-dose single-agent curves, 4-parameter fit; conditions: Homo sapiens, MIA PaCa-2, 72 h, read-out: EC50 [nM]
# Method: as §1
# [1] = AsPC-1, Experiment GEM (no ATRi), single replicates R1-R3
# [2] = AsPC-1, Experiment GEM+ATRi_dose1, single replicates R1-R3
# [3] = AsPC-1, Experiment GEM+ATRi_dose2, single replicates R1-R3
# [4] = AsPC-1, Experiment GEM+ATRi_dose3, single replicates R1-R3
smiles,measurement,setting,value
Cc1cccc(-c2nn3c(c2-c2ccnc4ccc(C(N)=O)cc24)CCC3)n1 [Galunisertib],EC50,HPDE,230 nM
same,EC50,PaTu-8988-T,98.7 nM
same,EC50,Colo-357,302 nM
same,EC50,Suit2-07,3360 nM
same,EC50,BxPC-3,333 nM
same,EC50,AsPC-1,72.9 nM
same,EC50,HuP-T4,1480 nM
same,EC50,PANC-1,60.8 nM
same,EC50,FAMPAC,155 nM
same,EC50,Dan-G,47.4 nM
same,EC50,Capan-1,151 nM
same,EC50,PSN-1,0.11 nM
CC(=O)O[C@H]1C(=O)[C@@]2(C)[C@H]([C@H](OC(=O)c3ccccc3)[C@]3(O)C[C@H](OC(=O)[C@H](O)[C@@H](NC(=O)c4ccccc4)c4ccccc4)C(C)=C1C3(C)C)[C@]1(OC(C)=O)CO[C@@H]1C[C@@H]2O [Paclitaxel],Curve slope,AsPC-1 cells; [1],1.97 and 2.99 and 2.20
same,Curve top,AsPC-1 cells; [1],0.44 and 0.38 and 0.36
same,Curve slope,AsPC-1 cells; [2],1.47 and 2.08 and 1.46
same,Curve top,AsPC-1 cells; [2],0.45 and 0.37 and 0.39
same,Curve slope,AsPC-1 cells; [3],2.59 and 1.83 and 1.78
same,Curve top,AsPC-1 cells; [3],0.45 and 0.38 and 0.37
same,Curve bottom,AsPC-1 cells; [4],0.92 and 0.80
same,Curve slope,AsPC-1 cells; [4],2.50 and 1.97 and 3.20
same,Curve top,AsPC-1 cells; [4],0.42 and 0.35 and 0.36
same,EC50,"AsPC-1 cells; ASPC1, 72 h, AsPC-1, Experiment GEM (no ATRi), single replicates R1-R3",1.89 nM
same,EC50,"AsPC-1 cells; ASPC1, 72 h, read-out: EC50 mean [nM], AsPC-1, Experiment GEM (no ATRi), mean of R1-R3, repeated in each replicate line",2.09 nM
same,EC50,"AsPC-1 cells; ASPC1, 72 h, read-out: pEC50, AsPC-1 (converted), Experiment GEM (no ATRi), single replicates R1-R3",1.91 nM
same,EC50,"AsPC-1 cells; ASPC1, read-out: EC50 mean [nM], AsPC-1, Experiment GEM (no ATRi), mean of R1-R3, repeated in each replicate line",2.09 nM
same,EC50,"AsPC-1 cells; ASPC1, read-out: EC50 mean [nM], AsPC-1, Experiment GEM+ATRi_dose1, mean of R1-R3, repeated in each replicate line",2.62 nM
same,EC50,"AsPC-1 cells; ASPC1, read-out: EC50 mean [nM], AsPC-1, Experiment GEM+ATRi_dose3, mean of R1-R3, repeated in each replicate line",2.03 nM
same,Response,AsPC-1 cells; chemodrug 1 nM + ATRi 3 nM,78.95 and 82.15 and 71.41
same,Response,AsPC-1 cells; chemodrug 1 nM + ATRi 10 nM,76.45 and 74.25 and 74.55
same,Response,AsPC-1 cells; chemodrug 1 nM + ATRi 30 nM,75.55 and 68.26 and 64.62
same,Response,AsPC-1 cells; chemodrug 1 nM alone (ATRi 0 nM),78.71 and 81.33 and 75.17
same,Response,AsPC-1 cells; chemodrug 3 nM + ATRi 3 nM,63.11 and 58.53 and 53.51
same,Response,AsPC-1 cells; chemodrug 3 nM + ATRi 10 nM,46.62 and 47.02 and 47.86
same,Response,AsPC-1 cells; chemodrug 3 nM + ATRi 30 nM,47.65 and 42.95 and 41.75
same,Response,AsPC-1 cells; chemodrug 3 nM alone (ATRi 0 nM),51.76 and 52.32 and 44.31
same,Response,AsPC-1 cells; chemodrug 10 nM + ATRi 3 nM,44.83 and 35.01 and 34.23
same,Response,AsPC-1 cells; chemodrug 10 nM + ATRi 10 nM,38.43 and 33.69 and 33.51
same,Response,AsPC-1 cells; chemodrug 10 nM + ATRi 30 nM,39.64 and 34.49 and 30.28
same,Response,AsPC-1 cells; chemodrug 10 nM alone (ATRi 0 nM),41.65 and 34.17 and 31.46
same,Response,AsPC-1 cells; chemodrug 30 nM + ATRi 3 nM,39.42 and 37.16 and 36.82
same,Response,AsPC-1 cells; chemodrug 30 nM + ATRi 10 nM,50.74 and 48.74 and 42.64
same,Response,AsPC-1 cells; chemodrug 30 nM + ATRi 30 nM,37.65 and 29.32 and 30.21
same,Response,AsPC-1 cells; chemodrug 30 nM alone (ATRi 0 nM),37.54 and 28.80 and 29.10
same,Response,AsPC-1 cells; chemodrug 100 nM + ATRi 3 nM,42.23 and 38.61 and 46.44
same,Response,AsPC-1 cells; chemodrug 100 nM + ATRi 10 nM,39.32 and 32.95 and 29.28
same,Response,AsPC-1 cells; chemodrug 100 nM + ATRi 30 nM,43.96 and 36.95 and 33.77
same,Response,AsPC-1 cells; chemodrug 100 nM alone (ATRi 0 nM),39.78 and 30.74 and 27.32
same,Response,AsPC-1 cells; chemodrug 300 nM + ATRi 3 nM,37.81 and 31.67 and 30.77
same,Response,AsPC-1 cells; chemodrug 300 nM + ATRi 10 nM,33.31 and 30.07 and 28.41
same,Response,AsPC-1 cells; chemodrug 300 nM + ATRi 30 nM,35.70 and 31.17 and 27.41
same,Response,AsPC-1 cells; chemodrug 300 nM alone (ATRi 0 nM),37.36 and 36.59 and 31.62
same,Response,AsPC-1 cells; chemodrug 1000 nM + ATRi 3 nM,37.14 and 28.54 and 28.57
same,Response,AsPC-1 cells; chemodrug 1000 nM + ATRi 10 nM,36.12 and 27.22 and 30.37
same,Response,AsPC-1 cells; chemodrug 1000 nM + ATRi 30 nM,34.38 and 27.12 and 28.86
same,Response,AsPC-1 cells; chemodrug 1000 nM alone (ATRi 0 nM),37.88 and 33.79 and 33.23
same,Response,AsPC-1 cells; chemodrug 3000 nM + ATRi 3 nM,36.69 and 27.57 and 27.01
same,Response,AsPC-1 cells; chemodrug 3000 nM + ATRi 10 nM,34.07 and 26.83 and 25.03
same,Response,AsPC-1 cells; chemodrug 3000 nM + ATRi 30 nM,28.21 and 28.84 and 28.63
same,Response,AsPC-1 cells; chemodrug 3000 nM alone (ATRi 0 nM),33.73 and 34.70 and 28.11
same,sensitization of AsPC-1 cells to the chemodrug by Elimusertib,AsPC-1 cells; chemodrug + three sub-EC50 doses of Elimusertib,not
COc1ccc(CN2[C@@H]3C[C@H]2CN(c2ccc(-c4cc(OCC(C)(C)O)cn5ncc(C#N)c45)cn2)C3)cn1 [Selpercatinib],EC50,HPDE,4930 nM
same,EC50,PaTu-8988-T,543 nM
same,EC50,Colo-357,4280 nM
same,EC50,Suit2-07,1160 nM
same,EC50,BxPC-3,2980 nM
same,EC50,AsPC-1,4660 nM
same,EC50,HuP-T4,72.1 nM
same,EC50,PANC-1,3470 nM
same,EC50,FAMPAC,> 10000 nM
same,EC50,Dan-G,6000 nM
same,EC50,Capan-1,> 10000 nM
same,EC50,PSN-1,> 10000 nM
same,EC50,MiaPaCa-2,2900 nM
CNC(=O)c1ccc(-c2cnc3ncc(Cc4ccc5ncccc5c4)n3n2)cc1F [Capmatinib],EC50,HPDE,1090 nM
same,EC50,PaTu-8988-T,> 10000 nM
same,EC50,Suit2-07,6000 nM
same,EC50,BxPC-3,323 nM
same,EC50,AsPC-1,1.63 nM
same,EC50,HuP-T4,3120 nM
same,EC50,PANC-1,> 10000 nM
same,EC50,FAMPAC,8.91 nM
same,EC50,Dan-G,451 nM
same,EC50,Capan-1,6320 nM
same,EC50,PSN-1,521 nM
O=C1[O][Pt]2([NH][C@@H]3CCCC[C@H]3[NH]2)[O]C1=O [Oxaliplatin],pEC50,AsPC-1 cells,6.56
same,sensitization of AsPC-1 cells to the chemodrug by Elimusertib,AsPC-1 cells,sensitized
CC(C)(C)c1cc(NC(=O)Nc2ccc(-c3cn4c(n3)sc3cc(OCCN5CCOCC5)ccc34)cc2)no1 [Quizartinib],EC50,HPDE,2670 nM
same,EC50,PaTu-8988-T,96.7 nM
same,EC50,Colo-357,61.4 nM
same,EC50,Suit2-07,155 nM
same,EC50,BxPC-3,1570 nM
same,EC50,AsPC-1,1530 nM
same,EC50,HuP-T4,1020 nM
same,EC50,PANC-1,515 nM
same,EC50,FAMPAC,2490 nM
same,EC50,Dan-G,932 nM
same,EC50,Capan-1,1420 nM
same,EC50,PSN-1,1470 nM
same,EC50,MiaPaCa-2,1410 nM

# Reference: PMC11876601 (Molecular Systems Biology, 2025)
